What is called IC50 is the concentration that gives 50% inhibition. A higher IC50 goes with weaker potency in that assay.

The source of these data is patent US10363261B2, “Enolase inhibitors and methods of treatment therewith” (Board of Regents, The University of Texas System, priority 2015, dated 2019).

“And” between values parts separate entries of the source, which are not always exact repeats. Equal entries are not always repeated.

For one data set, the system named is ENO1-intact glioma cells. Put plainly: Toxicity to ENO1-intact glioma cells during 13C-1 glucose tracing. It is filed as cell-based, human. As to conditions: 10 μM, four days. Here is the method:
^13C-1 glucose tracing by NMR treatment was performed with a concentration of SF2312 (10 μM) that is non-toxic to ENO1-intact glioma cells for four days, led to profound inhibition of glucose consumption (isomeric peaks at 97 and 93 ppm) and lactate production (single peak at 20 ppm) in the media of D423 and Gli56 ENO1 deleted but not ENO1-intact glioma cells (FIG. 33). At the same time, a single peak at 64 ppm became visible in the D423 and Gli56 ENO1-deleted cells treated with SF2312. The most likely origin of this peak is the C-3 atom glycerate, which has a reported ^13C peak of 64 ppm (Spectral Database of Organic Compounds, SDBS No. 18695) and is the atom on which the ^13C label derived from the C-1 atom on glucose is expected. […] Glycerate likely forms in response to enolase inhibition as 2-PGA or 3-PGA accumulate and (the substrates of the enzyme) spontaneously hydrolyze, or alternatively, are dephosphorylated by the action of glycerate kinase (GLYCTK, FIG. 41). These experiments were repeated with D423 ENO1-deleted and isogenic ENO1-rescued control glioma cells with both PhAH and SF2312 (FIGS. 32C & 32D). […] This effect is especially noticeable when expressed as a ratio of ^13C-glycerate to ^13C-lactate, metabolites upstream and downstream of the enolase reaction, respectively (FIG. 32D). […]

For a further data set, the system named is D423 overexpressing ENO2. Put plainly: Sensitivity of D423 cells with re-expression of ENO2. Format: cell-based, human. As for the experimental part:
Total cell number was quantified by Hoechst 33342 (Cat# H3570; Invitrogen). Apoptotic cells were counted by staining with propidium iodide. Apoptotic cells become permeable to propidium iodide while live cells are not stained. On the day of apoptosis survey, old media was removed and each well was filled to 100 μl with fresh media. Hoechst and propidium iodide were mixed in 1:100 PBS and 10 μl of the mixture was added in each well gently without touching the cells for a final dilution of 1:1000 from stock. Plates were then incubated at 37° C. for 2 hours. Image capture and quantification was done by High Content Screening System—Operetta (Perkin Elmer).
Cell proliferation of glioma cell lines was assayed either through crystal violet staining or by live-cell confluence measurements with the IncuCyte (Essen BioScience). […] Dye extraction was performed using 10% acetic acid solution, and absorbance was read at 595 nm. Apoptotic cells were counted by staining with YO-PRO®-1 Iodide (491/509, Life Technologies, Y3603). […] Total cell number was quantified by Hoechst 33342 (Cat# H3570 Invitrogen). […] Image capture and quantification was done by High Content Screening System—Operetta (Perkin Elmer). ATP content was measured with the luciferase/luciferin CellTiter-Glo® assay. […]

The target in data set [1] is T1, ENO2 (Homo sapiens, UniProt P09104). The data set is described as follows: Ligand-induced thermal shift assay on cell lysates (D423 overexpressing ENO2). Format: binding. More on the design: expressed in transfected cells; host or cells: D423 (D423-MG) human glioma cells, clone pCMV ENO2 1x.
T1 sequence (P09104 whole entry): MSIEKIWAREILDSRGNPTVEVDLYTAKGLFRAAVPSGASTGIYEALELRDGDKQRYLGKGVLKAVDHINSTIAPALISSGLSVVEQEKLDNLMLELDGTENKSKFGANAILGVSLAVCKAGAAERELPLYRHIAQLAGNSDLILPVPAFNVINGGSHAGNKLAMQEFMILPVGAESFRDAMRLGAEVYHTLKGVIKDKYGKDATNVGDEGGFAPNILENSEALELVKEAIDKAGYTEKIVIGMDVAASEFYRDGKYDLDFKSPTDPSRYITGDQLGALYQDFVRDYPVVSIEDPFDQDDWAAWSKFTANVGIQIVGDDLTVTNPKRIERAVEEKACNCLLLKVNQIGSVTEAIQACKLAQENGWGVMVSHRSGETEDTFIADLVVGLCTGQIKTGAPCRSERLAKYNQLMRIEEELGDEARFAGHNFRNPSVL
Method: Lysates: The lysates were prepared in 20 mM Tris-HCl, 1 mM EDTA and 1 mM β-mercaptoethanol at pH 7.4 and homogenized using a Polytron homogenizer three times for a period of 10 s followed by sonication, after which the lysates were cleared by centrifugation at 20,000 g for 10 minutes. Lysates were diluted (1:100) in Enolase enzymatic activity buffer as mentioned above. […] The lysates were then centrifuged at 20,000 g for 10 minutes. Supernatant and pellet were then separated and NuPage LDS Sample buffer (Life Technologies # NP0007) was added.
As an additional test of SF2312 binding to the enolase protein, ligand-induced thermal shift assays were performed on cell lysates under the same conditions as we performed the enzymatic assay (Martinez Molina, et al., 2013). The principal of the assay is that heat-denatured proteins precipitate out of solution when their hydrophobic core is exposed. As a result, heat denatured proteins disappear from the lysate after centrifugation, whereas native properly folded proteins remain in solution. The levels of specific proteins in the supernatant, such as non-denatured proteins, are followed by immunoblotting as a function of increasing temperature.
For data set [2], the target named is T1, ENO2. The data set is described as follows: Enolase enzymatic activity and Michaelis-Menten kinetic analysis, ENO2.
Method: Human ENO1 and ENO2 were overexpressed in the human D423 cell line and used for enzymatic assays. […] Enzymatic activity was measured by monitoring fluorescence of NADH at 340 nm Exitation/460 nm emission using an Lactate dehydrogenase/Pyruvate kinase linked assay which links the formation of PEP to the oxidation of NADH to NAD+, as we have described in published work (Muller et al., 2012). Enzymatic activity was normalized to that in the absence of the inhibitor (set to 1) and plotted as function of inhibitor concentration.
The Michaelis-Menten Kinetic analysis was performed using standard methods in the field such as those taught by Voet and Voet, 2011. The enzymatic activity of Enolase 1 or 2 v was determine over a concentration range of 10 mM to 0.5 mM 2-PG [S], in the presence of increasing concentrations of inhibitor [I].
Native lysates of mouse tissues and human cell lines were prepared using 20 mM Tris HCl, 1 mM EDTA, and 1 mM β-mercaptoethanol at pH 7.4 and homogenized using a Polytron homogenizer three times for a period of 10 s followed by sonication, after which the lysates were cleared by centrifugation at 20,000 g for 10 minutes. Enolase activity was measured using two different methods, either by a fluorometric NADH-linked assay or a direct spectrophotometric assay via formation of PEP. In the fluorescent assay, enolase activity was measured via NADH oxidation in a pyruvate kinase-lactate dehydrogenase coupled assay as previously described (Muller, et al., 2012). The assay is conducted in 10 mM KCl, 5 mM MgSO4, 100 mM triethanolamine at pH 7.4, with 400 μM NADH and 2 mM ADP. 2-Phosphoglycerate (2-PGA), pyruvate kinase (PK) and lactate dehydrogenase (LDH) are provided in excess, with conversion of 2-PGA to PEP by enolase being rate limiting. PEP (with ADP) is substrate of PK; pyruvate formed by this reaction is linked to NADH oxidation by LDH. Enolase activity is determined by measuring oxidation of NADH fluorescently by excitation at 340 nm and emission at 460 nm. The substrate concentration, if not otherwise indicated, was 5 mM 2-PGA. Fluorescence was measured using Omega Fluorescence Plate Reader (BMG Labtech). Alternatively, Enolase activity was measured directly by the appearance of PEP from 2-PGA via absorption at 240 nm (Marangos, et al., 1978). The assay medium was the same, except that all the auxiliary reagents (PK/LDH, NADH, ADP) are omitted. Both assays were conducted in a 96-well plated format with the direct assay performed in UV-transmissible plates.

As for `O=C1C(P(=O)(O)O)CC(O)N1O` (racemic) [SF2312, 3-dihydroxyphosphoryl-1,5-dihydroxy-2-pyrrolidone], in the data set with ENO1-intact glioma cells, the “toxicity to ENO1-intact glioma cells” value is “non-toxic”. The “residual sensitivity to SF2312 relative to that of PhAH after re-expression of ENO2” value in the data set with D423 overexpressing ENO2 is listed as “at least 4 times”. Further, the “shift in the thermal denaturation of ENO2” value at ENO2 [1] (1 μM inhibitor) is > 7.5 °C and 7.5 °C. Besides, the “melting temperature of ENO2 with inhibitor” value on ENO2 [1] (1 μM, from ~67.5 ° C. without inhibitor) is greater than 75 °C. Besides, at ENO2 [2], the IC50 was roughly 20 nM. In addition, the “potency against ENO2 versus ENO1 (IC50 lower / activity greater for ENO2)” value at ENO2 [2] (ENO2 over ENO1) came out at 10 fold. The “inhibition kinetics with respect to substrate 2-PGA” value against ENO2 [2] (SF2312: at IC50) was “non-competitive kinetics”.
